The NIST ThermoML archive (doi:10.1021/je7002836)

Key:
[1] = xn = mol fraction of the nth substance listed; settings: 101 kPa, Liquid
[2] = molar heat capacity at constant pressure; xn = mol fraction of the nth substance listed; settings: 101 kPa, Liquid

CCCC[n+]1cccc(C)c1.F[B-](F)(F)F [1-butyl-3-methylpyridinium tetrafluoroborate] + CCO
Settings | mass density, [1] [kg/m3] | molar heat capacity at constant pressure, [2] [J/K/mol]
293.15 K, x1 = 0.0073 | 800.5 | 113.6
293.15 K, x1 = 0.0126 | 807.8 | 115.2
293.15 K, x1 = 0.0231 | 821.5 | 119.1
293.15 K, x1 = 0.0512 | 855.1 | 129.4
293.15 K, x1 = 0.1003 | 904.1 | 146.4
293.15 K, x1 = 0.2569 | 1010.3 | 190.3
293.15 K, x1 = 0.3847 | 1065.4 | 223.7
293.15 K, x1 = 0.4841 | 1097.1 | –
293.15 K, x1 = 0.5031 | – | 252.6
293.15 K, x1 = 0.5963 | 1124.9 | 276.9
293.15 K, x1 = 0.6919 | – | 301.6
293.15 K, x1 = 0.7107 | 1148 | –
293.15 K, x1 = 0.7784 | – | 324.5
293.15 K, x1 = 0.7966 | 1162.2 | –
293.15 K, x1 = 0.8711 | – | 350
293.15 K, x1 = 0.8923 | – | 355.9
293.15 K, x1 = 0.9514 | 1183.1 | 372.8
293.15 K, x1 = 1 | 1188.6 | 385.8
298.15 K, x1 = 0.0073 | 796.3 | 115.4
298.15 K, x1 = 0.0126 | 803.5 | 117.1
298.15 K, x1 = 0.0231 | 817.3 | 120.9
298.15 K, x1 = 0.0512 | 851 | 131
298.15 K, x1 = 0.1003 | 900.1 | 147.5
298.15 K, x1 = 0.2569 | 1006.4 | 191.3
298.15 K, x1 = 0.3847 | 1061.6 | 224.8
298.15 K, x1 = 0.4841 | 1093.4 | –
298.15 K, x1 = 0.5031 | – | 254.2
298.15 K, x1 = 0.5963 | 1121.3 | 278.5
298.15 K, x1 = 0.6919 | – | 303.4
298.15 K, x1 = 0.7107 | 1144.5 | –
298.15 K, x1 = 0.7784 | – | 326.6
298.15 K, x1 = 0.7966 | 1158.7 | –
298.15 K, x1 = 0.8711 | – | 352.1
298.15 K, x1 = 0.8923 | – | 358.1
298.15 K, x1 = 0.9514 | 1179.6 | 375.1
298.15 K, x1 = 1 | 1185.2 | 387.7
303.15 K, x1 = 0.0073 | 792 | 117.3
303.15 K, x1 = 0.0126 | 799.3 | 119.1
303.15 K, x1 = 0.0231 | 813 | 122.7
303.15 K, x1 = 0.0512 | 846.8 | 132.6
303.15 K, x1 = 0.1003 | 896 | 148.7
303.15 K, x1 = 0.2569 | 1002.6 | 192.4
303.15 K, x1 = 0.3847 | 1057.9 | 226
303.15 K, x1 = 0.4841 | 1089.7 | –
303.15 K, x1 = 0.5031 | – | 255.7
303.15 K, x1 = 0.5963 | 1117.7 | 280.1
303.15 K, x1 = 0.6919 | – | 305.3
303.15 K, x1 = 0.7107 | 1140.9 | –
303.15 K, x1 = 0.7784 | – | 328.9
303.15 K, x1 = 0.7966 | 1155.2 | –
303.15 K, x1 = 0.8711 | – | 354.4
303.15 K, x1 = 0.8923 | – | 360.5
303.15 K, x1 = 0.9514 | 1176.2 | 377.4
303.15 K, x1 = 1 | 1181.7 | 390.1
308.15 K, x1 = 0.0073 | 787.6 | 119.5
308.15 K, x1 = 0.0126 | 794.9 | 121.2
308.15 K, x1 = 0.0231 | 808.8 | 124.7
308.15 K, x1 = 0.0512 | 842.6 | 134.3
308.15 K, x1 = 0.1003 | 891.9 | 150.1
308.15 K, x1 = 0.2569 | 998.7 | 193.6
308.15 K, x1 = 0.3847 | 1054.2 | 227.2
308.15 K, x1 = 0.4841 | 1086.1 | –
308.15 K, x1 = 0.5031 | – | 257.3
308.15 K, x1 = 0.5963 | 1114.2 | 281.8
308.15 K, x1 = 0.6919 | – | 307.3
308.15 K, x1 = 0.7107 | 1137.4 | –
308.15 K, x1 = 0.7784 | – | 331.1
308.15 K, x1 = 0.7966 | 1151.7 | –
308.15 K, x1 = 0.8711 | – | 356.9
308.15 K, x1 = 0.8923 | – | 363
308.15 K, x1 = 0.9514 | 1172.8 | 379.7
308.15 K, x1 = 1 | 1178.3 | 392.8
313.15 K, x1 = 0.0073 | 783.3 | 121.7
313.15 K, x1 = 0.0126 | 790.6 | 123.3
313.15 K, x1 = 0.0231 | 804.5 | 126.7
313.15 K, x1 = 0.0512 | 838.4 | 136
313.15 K, x1 = 0.1003 | 887.8 | 151.6
313.15 K, x1 = 0.2569 | 994.8 | 194.9
313.15 K, x1 = 0.3847 | 1050.4 | 228.5
313.15 K, x1 = 0.4841 | 1082.4 | –
313.15 K, x1 = 0.5031 | – | 258.9
313.15 K, x1 = 0.5963 | 1110.6 | 283.5
313.15 K, x1 = 0.6919 | – | 309.4
313.15 K, x1 = 0.7107 | 1133.9 | –
313.15 K, x1 = 0.7784 | – | 333.5
313.15 K, x1 = 0.7966 | 1148.3 | –
313.15 K, x1 = 0.8711 | – | 359.5
313.15 K, x1 = 0.8923 | – | 365.7
313.15 K, x1 = 0.9514 | 1169.4 | 382
313.15 K, x1 = 1 | 1174.9 | 395.9
318.15 K, x1 = 0.0073 | 778.9 | 124.1
318.15 K, x1 = 0.0126 | 786.2 | 125.6
318.15 K, x1 = 0.0231 | 800.3 | 128.8
318.15 K, x1 = 0.0512 | 834.1 | 137.9
318.15 K, x1 = 0.1003 | 883.7 | 153.2
318.15 K, x1 = 0.2569 | 990.9 | 196.2
318.15 K, x1 = 0.3847 | 1046.7 | 229.8
318.15 K, x1 = 0.4841 | 1078.7 | –
318.15 K, x1 = 0.5031 | – | 260.4
318.15 K, x1 = 0.5963 | 1107.1 | 285.3
318.15 K, x1 = 0.6919 | – | 311.5
318.15 K, x1 = 0.7107 | 1130.4 | –
318.15 K, x1 = 0.7784 | – | 335.9
318.15 K, x1 = 0.7966 | 1144.8 | –
318.15 K, x1 = 0.8711 | – | 362.2
318.15 K, x1 = 0.8923 | – | 368.5
318.15 K, x1 = 0.9514 | 1166 | 384.4
318.15 K, x1 = 1 | 1171.6 | 399.3
